Laboratory results published in patent publication US12636325B2, “Probiotic compositions for treating and preventing colorectal cancer” (The Chinese University of Hong Kong, priority 2021, dated 2026).

Experiments:
[1] = test system: CRC cell lines (HCT116 and LoVo); assay: Cell viability (MTT) assay, CRC cell lines; format: cell-based
Method: After culturing L. gallinarum or E. coli MG1655 for 1-2 days, the bacterial concentration in each culture medium was measured using NanoDrop spectrophotometer (NanoDrop Technologies, Wilmington, DE). BHI cultures were diluted to ensure equal concentrations of L. gallinarum and E. coli. Culture supernatants were then collected by centrifugation at 5,000 rpm for 10 minutes, followed by sterile filtration with a 0.22-μm membrane. Filtrates were collected and termed as L. gallinarum culture supernatant (LGCS) or E. coli MG1655 culture supernatant (ECCS). Bacterial culture supernatant was separated into low-molecular-weight (LMW) and high-molecular-weight (HMW) using Amicon Ultra-15 Centrifugal Filter Units with a pore size of 3 kilodalton (kDa, Millipore, Bedford, MA). After centrifugation in a swinging bucket rotor at 4,000 g for 30 minutes, cells were cultured in medium containing […] or control broth (LMW, 10%; HMW, 1%). The bacterial supernatants were heated at 100° C. for 30 minutes or treated with proteinase k (50 ug/ml; QIAGEN GmbH, Hilden, Germany). […] Cell proliferation was measured by MTT assay for 5 consecutive days. The amount of MTT formazan product was determined by measuring absorbance at a wavelength of 570 nm (OD570) with a microplate reader (Multiskan GO Microplate Spectrophotometer, Thermo Scientific, Vantaa, Finland). […]

[2] = target: T1, aryl hydrocarbon receptor (AhR) (Homo sapiens, UniProt P35869); assay: Transcription of AhR after AhR antagonist; format: cell-based; details: 100 nM
T1 construct: endogenous in cells
T1 sequence (P35869 11-848): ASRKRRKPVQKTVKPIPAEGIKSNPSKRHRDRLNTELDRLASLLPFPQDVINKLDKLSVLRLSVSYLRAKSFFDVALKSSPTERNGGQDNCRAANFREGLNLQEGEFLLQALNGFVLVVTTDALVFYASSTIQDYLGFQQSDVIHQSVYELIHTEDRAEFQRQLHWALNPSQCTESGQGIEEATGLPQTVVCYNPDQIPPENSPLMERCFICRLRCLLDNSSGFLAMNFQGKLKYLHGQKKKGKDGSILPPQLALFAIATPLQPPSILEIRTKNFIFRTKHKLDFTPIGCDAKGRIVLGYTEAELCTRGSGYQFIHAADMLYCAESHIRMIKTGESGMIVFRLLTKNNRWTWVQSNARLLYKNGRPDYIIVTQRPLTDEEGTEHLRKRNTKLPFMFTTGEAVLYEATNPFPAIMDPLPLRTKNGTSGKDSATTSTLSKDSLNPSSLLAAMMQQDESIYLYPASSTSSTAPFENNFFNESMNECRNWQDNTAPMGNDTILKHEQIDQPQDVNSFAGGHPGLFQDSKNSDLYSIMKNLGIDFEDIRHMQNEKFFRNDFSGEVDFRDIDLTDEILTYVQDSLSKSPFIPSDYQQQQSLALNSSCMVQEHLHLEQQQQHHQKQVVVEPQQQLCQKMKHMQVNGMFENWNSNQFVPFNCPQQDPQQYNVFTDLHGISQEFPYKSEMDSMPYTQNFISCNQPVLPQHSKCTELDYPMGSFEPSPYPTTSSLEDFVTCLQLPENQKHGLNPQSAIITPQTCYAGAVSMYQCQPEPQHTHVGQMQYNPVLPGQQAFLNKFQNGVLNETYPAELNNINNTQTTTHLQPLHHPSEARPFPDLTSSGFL

[3] = test system: Apc^min/+ mice; assay: Intestinal tumorigenesis in Apc^Min/+ mice gavaged with L. gallinarum; format: in vivo; details: male and female Apc^Min/+ mice with CH-223191 treatment
Method: […] Apc^Min/+ mice at 5 to 6 weeks old were divided into 3 groups with or without CH-223191 treatment: (1) control; (2) E. coli MG1655; and (3) L. gallinarum. L. gallinarum and E. coli MG1655 were cultured in MRS broth (Difco Laboratories, Detroit, MN) and BHI broth, respectively. After one day, 1.0×10^8 colony-forming units (CFUs) bacteria were collected and resuspended in 100 ul PBS. Mice were gavaged once daily for 8 weeks and body weight and stool were examined weekly.
Mouse colonoscopy (Karl Storz Endoskope, Tuttlingen, Germany) was performed prior to sacrifice. The colonoscope was inserted into the anus and advanced proximally under direct visualization, facilitated by air insufflation, and representative pictures of the colon tumor from each group were recorded. After 8 weeks of gavage, mice were anaesthetized and sacrificed. Small intestines and colons of mice were longitudinally opened and rinsed with PBS. Total number of tumors in small intestine and colon were recorded. Size of each tumor was measured using previous published formula^42. All animal studies were performed in accordance with guidelines approved by the Animal Experimentation Ethics Committee of The Chinese University of Hong Kong.
To investigate the effect of L. gallinarum on colorectal tumorigenesis, Apc^Min/+ mice were first used. […]

[4] = test system: CRC cell lines, HCT116 and LoVo; assay: Apoptosis assay (Annexin V-PE / 7-AAD flow cytometry), CRC cell lines; format: cell-based; details: FIG. 18F
Method: Cells were plated on 6-well plates 24 hours prior to treatment, and cultured in medium containing 10% […] or control broth. CRC patient-derived organoids were cultured on 6-well plates, and 10% […] or control broth was added to Matrigel and growth medium. After treatment, cells and organoids were digested in 0.25% trypsin-EDTA (Gibco-Invitrogen Corp., Grand Island, NY) and TrypLE, respectively. For apoptosis assay, the proportion of apoptotic cells was evaluated by dual staining with Annexin V-PE and 7-Aminoactinomycin D (7-AAD) (BD Pharmingen, San Jose, CA). Combination of Annexin V-PE and 7-AAD staining distinguished early apoptotic cells (Annexin V+, 7-AAD-) and late apoptotic cells (Annexin V+, 7-AAD+). For cell cycle analysis, cells treated with 10% […] or control broth for 1 day were fixed and stained with 50 μg/ml propidium iodide (PI) (BD Pharmingen). Cell cycle of all stained cells were analyzed using […] cell sorter (BD Biosciences, San Jose, CA).

[5] = test system: Apc^min/+ mice; assay: Gavage of ILA into Apc^Min/+ mice; format: in vivo; details: gavage 20 mg/kg
Method: Functional investigation of ILA in CRC tumorigenesis was then performed in vivo. […] Moreover, additional experiments were performed to investigate if antagonizing ILA could abrogate L. gallinarum medicated anti-cancer effect. […] Thus, ILA can contribute, at least in part, to the tumor-suppressive effect of L. gallinarum.

| Structure (SMILES) | effect on CRC suppression by L. gallinarum in vitro ([1]; CRC cells pre-treated with 100 nM for 12 hours before culture supernatant) | transcription of AhR [2] | effect on CRC suppression by L. gallinarum in Apc^Min/+ mice [3] | cell apoptosis of CRC cells [4] | cell viability of CRC cells ([1]; same amount of ILA as produced from L. gallinarum) | cells with positive TUNEL staining, adjacent normal tissues [5] | cells with positive TUNEL staining, tumor tissues [5] | tumor number [5] | tumor size [5] |
| --- | --- | --- | --- | --- | --- | --- | --- | --- | --- |
| Cc1ccccc1N=Nc1ccc(NC(=O)c2ccnn2C)c(C)c1 [CH-223191] | abolished the effect of L. gallinarum in suppressing CRC | significantly suppressed | abolished the effect of L. gallinarum in suppressing CRC |  |  |  |  |  |  |
| O=C(O)C(O)Cc1c[nH]c2ccccc12 (stereo not drawn) [ILA, indole-3-lactic acid] |  |  |  | significantly increased | decreased substantially | but not in adjacent normal tissues | increased | significantly reduced | significantly reduced |
